The source of these data is patent US20140163026A1, “8-ETHYL-6-(ARYL)PYRIDO[2,3-D]PYRIMIDIN-7(8H)-ONES FOR THE TREATMENT OF NERVOUS SYSTEM DISORDERS AND CANCER” (Afraxis Holdings, Inc., priority 2011, published 2014).

Format in all cases: biochemical
One assay concerns the target PAK1 (Homo sapiens, UniProt Q13153). The assay can be described thus: In vitro PAK inhibition assay (SelectScreen, Ser/Thr 19 peptide). The procedure:
(§1) Compounds are screened in 1% DMSO (final) in the well. For 10 point titrations, 3-fold serial dilutions are conducted.
(§2) All Peptide/Kinase Mixtures are diluted to a 2× working concentration in the appropriate Kinase Buffer
The 2×PAK1/Ser/Thr 19 mixture is prepared in 50 mM HEPES pH 7.5, 0.01% BRIJ-35, 10 mM MgCl2, 1 mM EGTA.
(§3) This control yields 100% cleaved peptide in the Development Reaction.
(§4) The 100% Phosphorylation Control, which consists of a synthetically phosphorylated peptide of the same sequence as the peptide substrate, is designed to allow for the calculation of percent phosphorylation.
(§5) This control is designed to produce a 10-50%* phosphorylated peptide in the Kinase Reaction.
(§6) A known inhibitor control standard curve, 10 point titration, is run for each individual kinase on the same plate as the kinase to ensure the kinase is inhibited within an expected IC50 range previously determined.
(§7) Add the following solutions to a well in a 384-well plate: • 2.5 μL of 4× Test Compound OR (100 nL 100× Test Compound plus 2.4 μL kinase buffer) • 5 μL of 2× Peptide/Kinase (PAK) Mixture • 2.5 μL of 4×ATP Solution • 2. Shake the plate for 30-seconds • 3. Incubate the PAK Kinase Reaction at room temperature for 60-minutes • 4. Add 5 μL of Development Reagent Solution to each well • 5. Shake the plate for 30-seconds • 6. Incubate the Development Reaction for 60-minutes • 7. Determine the fluorescence using a fluorescence plate reader • 8. Analyze the fluorescence data
(§8) SelectScreen® Kinase Profiling Service uses XLfit from IDBS.
(§9) The representative IC50 value with a known inhibitor for each kinase was determined at the ATP bin nearest to the ATP Km app.

In another assay the target is PAK3 (Homo sapiens, UniProt O75914). The assay can be described thus: In vitro PAK inhibition assay (SelectScreen, Ser/Thr 20 peptide). As to the method: as §1, §2
PAK3, sequence (O75914 whole entry): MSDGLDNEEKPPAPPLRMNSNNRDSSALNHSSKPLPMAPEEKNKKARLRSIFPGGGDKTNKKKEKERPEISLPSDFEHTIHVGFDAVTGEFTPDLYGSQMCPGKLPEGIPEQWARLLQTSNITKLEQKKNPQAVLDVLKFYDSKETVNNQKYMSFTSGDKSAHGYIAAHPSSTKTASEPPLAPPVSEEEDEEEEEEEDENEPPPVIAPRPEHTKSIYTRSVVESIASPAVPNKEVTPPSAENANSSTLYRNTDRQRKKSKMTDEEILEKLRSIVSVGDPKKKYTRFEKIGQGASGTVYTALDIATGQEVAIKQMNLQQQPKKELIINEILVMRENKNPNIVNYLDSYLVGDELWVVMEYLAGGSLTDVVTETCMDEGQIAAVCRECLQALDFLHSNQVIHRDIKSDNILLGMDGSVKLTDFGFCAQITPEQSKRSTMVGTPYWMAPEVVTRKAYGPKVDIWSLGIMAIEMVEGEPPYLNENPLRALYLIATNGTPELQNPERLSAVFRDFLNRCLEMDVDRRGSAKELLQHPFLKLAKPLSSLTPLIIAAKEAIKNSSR
The 2×PAK3/Ser/Thr 20 mixture is prepared in 50 mM HEPES pH 7.5, 0.01% BRIJ-35, 10 mM MgCl2, 1 mM EGTA.
as §3, §4, §5, §6, §7, §8, §9

The target of a further assay is PAK4 (Homo sapiens, UniProt O96013). Described as above. The procedure: as §1, §2
PAK4, sequence (O96013 whole entry): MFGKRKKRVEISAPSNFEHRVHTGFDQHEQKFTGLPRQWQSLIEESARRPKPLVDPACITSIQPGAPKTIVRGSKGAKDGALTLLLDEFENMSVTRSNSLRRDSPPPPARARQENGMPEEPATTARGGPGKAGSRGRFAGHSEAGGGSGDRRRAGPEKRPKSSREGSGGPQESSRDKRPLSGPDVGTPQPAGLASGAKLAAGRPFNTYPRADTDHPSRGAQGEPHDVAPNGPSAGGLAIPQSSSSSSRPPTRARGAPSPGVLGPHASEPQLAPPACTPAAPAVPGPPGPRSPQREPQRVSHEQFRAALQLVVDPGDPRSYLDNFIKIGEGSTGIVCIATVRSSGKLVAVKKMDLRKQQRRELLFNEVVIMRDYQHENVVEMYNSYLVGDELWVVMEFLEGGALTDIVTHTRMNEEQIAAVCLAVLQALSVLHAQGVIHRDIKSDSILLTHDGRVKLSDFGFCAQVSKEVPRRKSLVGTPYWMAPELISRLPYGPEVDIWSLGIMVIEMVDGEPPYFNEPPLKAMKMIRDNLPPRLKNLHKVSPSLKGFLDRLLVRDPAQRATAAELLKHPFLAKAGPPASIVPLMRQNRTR
The 2×PAK4/Ser/Thr 20 mixture is prepared in 50 mM HEPES pH 7.5, 0.01% BRIJ-35, 10 mM MgCl2, 1 mM EGTA. The final 10 μL Kinase Reaction consists of 0.1-0.75 ng PAK4 and 2 μM Ser/Thr 20 in 50 mM HEPES pH 7.5, 0.01% BRIJ-35, 10 mM MgCl2, 1 mM EGTA. After the 1 hour Kinase Reaction incubation, 5 μL of a 1:256 dilution of Development Reagent A is added.
as §3, §4
The minimum Emission Ratio in a screen is established by the 0% Inhibition Control, which contains active kinase. This control is designed to produce a 10-50%* phosphorylated peptide in the Kinase Reaction.
as §6
as §7, with “Bar-coded Corning, low volume NBS, black 384-well plate (Corning Cat. #3676) • 1. Add the” for “Add the”
SelectScreen® Kinase Profiling Service uses XLfit from IDBS. The dose response curve is curve fit to model number 205 (sigmoidal dose-response model).
The table below provides specifications and data around each kinase. The representative IC50 value with a known inhibitor for each kinase was determined at the ATP bin nearest to the ATP Km app.

A further assay deals with PAK2 (PAK65) (Homo sapiens, UniProt Q13177). Described as above. The procedure: as §1, §2
PAK2 (PAK65), sequence (Q13177 whole entry): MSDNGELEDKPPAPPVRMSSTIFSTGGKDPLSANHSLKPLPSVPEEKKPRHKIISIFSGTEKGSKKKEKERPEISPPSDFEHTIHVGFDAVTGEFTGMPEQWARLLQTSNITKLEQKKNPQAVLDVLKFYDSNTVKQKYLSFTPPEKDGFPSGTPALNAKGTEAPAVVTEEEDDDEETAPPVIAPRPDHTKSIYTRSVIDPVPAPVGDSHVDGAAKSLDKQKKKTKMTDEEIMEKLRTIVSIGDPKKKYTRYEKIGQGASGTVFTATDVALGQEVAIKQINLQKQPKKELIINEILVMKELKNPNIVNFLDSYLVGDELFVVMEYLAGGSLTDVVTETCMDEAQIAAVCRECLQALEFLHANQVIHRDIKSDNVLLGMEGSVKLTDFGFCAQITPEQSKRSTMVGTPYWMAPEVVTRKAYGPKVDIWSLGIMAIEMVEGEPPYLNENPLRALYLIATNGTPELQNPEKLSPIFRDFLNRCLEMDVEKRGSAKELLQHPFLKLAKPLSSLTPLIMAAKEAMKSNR
The 2×PAK2 (PAK65)/Ser/Thr 20 mixture is prepared in 50 mM HEPES pH 7.5, 0.01% BRIJ-35, 10 mM MgCl2, 1 mM EGTA. The final 10 μL Kinase Reaction consists of 0.29-6 ng PAK2 (PAK65) and 2 μM Ser/Thr 20 in 50 mM HEPES pH 7.5, 0.01% BRIJ-35, 10 mM MgCl2, 1 mM EGTA.
as §3, §4, §5, §6, §7, §8, §9

PAK1, sequence (Q13153 whole entry): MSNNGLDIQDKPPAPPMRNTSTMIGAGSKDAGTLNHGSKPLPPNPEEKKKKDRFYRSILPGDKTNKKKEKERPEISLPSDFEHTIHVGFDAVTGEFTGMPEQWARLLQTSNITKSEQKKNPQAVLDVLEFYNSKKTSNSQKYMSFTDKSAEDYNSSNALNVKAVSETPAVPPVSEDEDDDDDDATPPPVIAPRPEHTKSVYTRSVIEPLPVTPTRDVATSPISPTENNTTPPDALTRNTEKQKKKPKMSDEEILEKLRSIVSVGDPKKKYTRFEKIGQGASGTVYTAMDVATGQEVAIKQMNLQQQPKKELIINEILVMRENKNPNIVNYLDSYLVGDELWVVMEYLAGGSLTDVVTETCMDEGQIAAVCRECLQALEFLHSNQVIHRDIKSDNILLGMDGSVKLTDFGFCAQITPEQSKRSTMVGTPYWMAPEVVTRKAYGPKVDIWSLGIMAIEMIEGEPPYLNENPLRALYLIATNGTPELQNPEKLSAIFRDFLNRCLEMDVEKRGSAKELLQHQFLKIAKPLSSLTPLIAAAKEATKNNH

`CCn1c(=O)c(-c2sc(C)nc2C)cc2cnc(Nc3ccc(N4CCN(C)CC4)cc3)nc21`: the IC50 is more than 5000 nM against PAK1, more than 5000 nM on PAK3, not below 5000 nM against PAK4 and more than 5000 nM on PAK2 (PAK65).

With `CCn1c(=O)c(-c2ccc(-c3cncnc3)cc2Cl)cc2cnc(Nc3ccc(N4CCN(C)CC4)cc3)nc21`, the half-maximal inhibitory concentration (IC50) on PAK1 is less than 50 nM; against PAK3, less than 50 nM; against PAK4, 500 to 5000 nM; on PAK2 (PAK65), less than 50 nM.

As to `CCN1CCC(c2ccc(Nc3ncc4cc(-c5ccc(-c6cccnc6)cc5Cl)c(=O)n(CC)c4n3)cc2)CC1`, the IC50 at PAK1 was less than 50 nM; against PAK3 it was less than 50 nM; against PAK4 it was 500 to 5000 nM; at PAK2 (PAK65), less than 50 nM.

On to `CCN1CCC(c2ccc(Nc3ncc4cc(-c5ccc(-c6cnc(C)s6)cc5Cl)c(=O)n(CC)c4n3)cc2)CC1`, for which the IC50 against PAK1 is less than 50 nM; against PAK3, 50 to 500 nM; against PAK4, 500 to 5000 nM; against PAK2 (PAK65), less than 50 nM.

As for `CCn1c(=O)c(-c2ccc(-c3ccc(C(=O)NC)nc3)cc2Cl)cc2cnc(Nc3ccc(C4CCN(C)CC4)cc3)nc21`, the IC50 at PAK1 was 500 to 5000 nM; on PAK3 it was more than 5000 nM; at PAK4, not below 5000 nM; against PAK2 (PAK65), 50 to 500 nM.

Take `CCn1c(=O)c(-c2ccc(-c3ccc(C)nc3)cc2Cl)cc2cnc(Nc3ccc(C4CCN(C)CC4)cc3)nc21`: the half-maximal inhibitory concentration (IC50) is less than 50 nM against PAK1, 50 to 500 nM against PAK3, 500 to 5000 nM against PAK4 and less than 50 nM on PAK2 (PAK65).

In the case of `CCn1c(=O)c(-c2ccc(-c3cccnc3C)cc2Cl)cc2cnc(Nc3ccc(C4CCN(C)CC4)cc3)nc21`, the IC50 against PAK1 is less than 50 nM; on PAK3 it was less than 50 nM; against PAK4 it was not below 5000 nM; against PAK2 (PAK65), less than 50 nM.

`CCn1c(=O)c(-c2ccc(-c3cccnc3)cc2Cl)cc2cnc(Nc3ccccc3)nc21`: the concentration for half-maximal inhibition (IC50) at PAK1 is 50 to 500 nM; against PAK3, 500 to 5000 nM; at PAK4 it was not below 5000 nM; against PAK2 (PAK65), 500 to 5000 nM.

`CCn1c(=O)c(-c2ccc(-c3ccnc(C)c3)cc2Cl)cc2cnc(Nc3ccc(C4CCN(C)CC4)cc3)nc21`: the concentration for half-maximal inhibition (IC50) on PAK1 is more than 5000 nM; at PAK3, less than 50 nM; at PAK4, 500 to 5000 nM; against PAK2 (PAK65), less than 50 nM.

`CCN1CCC(c2ccc(Nc3ncc4cc(-c5ccc(-c6cnc(C)s6)cc5Cl)c(=O)n(CC)c4n3)cc2F)CC1`: the concentration for half-maximal inhibition (IC50) is less than 50 nM against PAK1, less than 50 nM against PAK3, 500 to 5000 nM against PAK4 and less than 50 nM against PAK2 (PAK65).

With `CCn1c(=O)c(-c2ccc(-c3cnc(C)s3)cc2Cl)cc2cnc(Nc3ccc(C4CCNC4)cc3)nc21` (stereo not shown), the IC50 against PAK1 was less than 50 nM; against PAK3, less than 50 nM; against PAK4, 500 to 5000 nM; on PAK2 (PAK65) it was less than 50 nM.

Take `CCn1c(=O)c(-c2ccc(-c3noc(C)n3)cc2Cl)cc2cnc(Nc3ccc(C4CCNCC4)c(F)c3)nc21`: the IC50 was less than 50 nM on PAK1, less than 50 nM at PAK3, 500 to 5000 nM on PAK4 and less than 50 nM on PAK2 (PAK65).

For `CCn1c(=O)c(-c2ccc(-c3cnc(C)s3)cc2Cl)cc2cnc(Nc3ccc(C4CCNCC4)c(F)c3)nc21`, the half-maximal inhibitory concentration (IC50) on PAK1 was less than 50 nM; against PAK3, less than 50 nM; on PAK4, 500 to 5000 nM; against PAK2 (PAK65) it was less than 50 nM.

For `CCn1c(=O)c(-c2ccc(-c3ccnc(C(=O)NC)c3)cc2Cl)cc2cnc(Nc3ccc(C4CCNCC4)cc3)nc21`, the IC50 is 50 to 500 nM against PAK1, 50 to 500 nM against PAK3, not below 5000 nM on PAK4 and 50 to 500 nM at PAK2 (PAK65).

For the compound `CCN1CCC(c2ccc(Nc3ncc4cc(-c5ccc(-c6ccnc(C)c6)cc5Cl)c(=O)n(CC)c4n3)cc2)CC1`, the IC50 on PAK1 is less than 50 nM; against PAK3, 50 to 500 nM; on PAK4, not below 5000 nM; against PAK2 (PAK65), less than 50 nM.

Turning to `CCn1c(=O)c(-c2ccc(-c3ccc(C)nc3)cc2Cl)cc2cnc(Nc3ccc(C4CCNCC4)cc3)nc21`, the 50% inhibitory concentration (IC50) on PAK1 was less than 50 nM; at PAK3, 50 to 500 nM; on PAK4, 500 to 5000 nM; at PAK2 (PAK65) it was less than 50 nM.

With `CCn1c(=O)c(-c2ccc(-c3ccnc(C)c3)cc2Cl)cc2cnc(Nc3ccc(C4CCNCC4)cc3)nc21`, the IC50 is less than 50 nM against PAK1, 50 to 500 nM on PAK3, 500 to 5000 nM against PAK4 and 50 to 500 nM at PAK2 (PAK65).

In the case of `CCN1CCC(c2ccc(Nc3ncc4cc(-c5ccc(-c6cccnc6)cc5Cl)c(=O)n(CC)c4n3)cc2F)CC1`, the IC50 against PAK1 is less than 50 nM; against PAK3, less than 50 nM; against PAK4 it was 500 to 5000 nM; against PAK2 (PAK65), less than 50 nM.

With `CCn1c(=O)c(-c2ccc(-c3cccnc3C)cc2Cl)cc2cnc(Nc3ccc(C4CCNCC4)c(F)c3)nc21`, the half-maximal inhibitory concentration (IC50) on PAK1 is less than 50 nM; on PAK3 it was 50 to 500 nM; against PAK4 it was 500 to 5000 nM; against PAK2 (PAK65), less than 50 nM.

For `CCn1c(=O)c(-c2ccc(-c3cccnc3)cc2Cl)cc2cnc(Nc3ccc(CN(C)C)cc3)nc21`, the 50% inhibitory concentration (IC50) was less than 50 nM against PAK1, less than 50 nM at PAK3, 500 to 5000 nM at PAK4 and less than 50 nM at PAK2 (PAK65).

As for `Cc1ncccc1-c1ccc(-c2cc3cnc(Nc4ccc(C5CCNCC5)cc4)nc3n(C)c2=O)c(Cl)c1`, the IC50 on PAK1 is less than 50 nM; at PAK3, 50 to 500 nM; on PAK4, not below 5000 nM; on PAK2 (PAK65), 50 to 500 nM.

With `CCn1c(=O)c(-c2ccc(-c3cccnc3C)cc2Cl)cc2cnc(Nc3ccc(C4=CCNCC4)cc3)nc21`, the IC50 on PAK1 was less than 50 nM; at PAK3, less than 50 nM; against PAK4, 500 to 5000 nM; at PAK2 (PAK65), less than 50 nM.

On to `CCn1c(=O)c(-c2ccc(-c3cccnc3F)cc2Cl)cc2cnc(Nc3ccc(C4=CCNCC4)cc3)nc21`, for which the IC50 against PAK1 is less than 50 nM; on PAK3, less than 50 nM; against PAK4, 50 to 500 nM; at PAK2 (PAK65), less than 50 nM.

As for `CCn1c(=O)c(-c2ccc(-c3cnc(C)s3)cc2Cl)cc2cnc(Nc3ccc(C4=CCNCC4)cc3)nc21`, the IC50 on PAK1 is less than 50 nM; at PAK3 it was less than 50 nM; against PAK4, 500 to 5000 nM; on PAK2 (PAK65), less than 50 nM.

For `CCn1c(=O)c(-c2ccc(-c3ccc(C)nc3)cc2Cl)cc2cnc(Nc3ccc(C4CCN(C(C)C)CC4)cc3)nc21`, the half-inhibitory concentration (IC50) at PAK1 was less than 50 nM; against PAK3, 50 to 500 nM; on PAK4, not below 5000 nM; against PAK2 (PAK65), less than 50 nM.

Take `CCn1c(=O)c(-c2ccc(-c3noc(C)n3)cc2Cl)cc2cnc(Nc3ccc(C4CCN5CCCC5C4)cc3)nc21` (stereo not shown): the 50% inhibitory concentration (IC50) on PAK1 was less than 50 nM; on PAK3 it was less than 50 nM; against PAK4 it was not below 5000 nM; at PAK2 (PAK65), less than 50 nM.

For the compound `CCn1c(=O)c(-c2ccc(-c3ccc(C)nc3)cc2Cl)cc2cnc(Nc3ccc(C4CCNCC4)c(F)c3)nc21`, the concentration for half-maximal inhibition (IC50) on PAK1 was less than 50 nM; against PAK3, 50 to 500 nM; on PAK4, 500 to 5000 nM; at PAK2 (PAK65) it was less than 50 nM.

With `CCn1c(=O)c(-c2ccc(-c3cccnc3F)cc2Cl)cc2cnc(Nc3ccc(C4=CCN(C)CC4)cc3)nc21`, the IC50 against PAK1 is less than 50 nM; at PAK3, less than 50 nM; against PAK4 it was 500 to 5000 nM; on PAK2 (PAK65), less than 50 nM.
